Literature values, collected in patent US20110059175A9, “ENHANCING SOLUBILITY AND DISSOLUTION RATE OF POORLY SOLUBLE DRUGS” (K.U.LEUVEN RESEARCH AND DEVELOPMENT, priority 2006, published 2011).
Converted amounts (≈) assume the structure as drawn. Read-outs that look alike come from different tables or passages of the source.

Key:
[1] = not given; remark: listed apart in the source
[2] = not given; remark: listed apart in the source
[3] = determined; Peeters et al., 2002

Question: With `NC(=O)N1c2ccccc2C=Cc2ccccc21` [Carbamazepine, 5H-dibenz[b,f]azepine-5-carboxamide] as the compound, how does the “solubility in water” value (water) read?
Answer: The value was “practically insoluble”.

Question: What does the source list for `C#C[C@]1(O)CC[C@H]2[C@@H]3CCC4=Cc5oncc5C[C@]4(C)[C@H]3CC[C@@]21C` [Danazol, 17a-Pregna-2,4-dien-20-yno[2,3-d]-isoxazol-17-ol]?
Answer: time at which peak concentrations occur ([1]; administered orally): ≤ 2 h; increase in plasma concentration on doubling the dose ([1]; doubling the dose): 30-40%; half-life ([1]; in vivo): 4 to 5 h

Question: For `CCC(C)n1ncn(-c2ccc(N3CCN(c4ccc(OCC5COC(Cn6cncn6)(c6ccc(Cl)cc6Cl)O5)cc4)CC3)cc2)c1=O` (centres unmarked) [Itraconazole], which permeability [2] is on record?
Answer: Its permeability is “adequate”.

Question: What about the pKa4 [3] of the same compound?
Answer: Its pKa4 is 4.0.

Question: And the “aqueous solubility (S)” value (neutral pH)?
Answer: The value was about 0.001 µg/mL (≈ 0.00142 µM).

Question: What about the “aqueous solubility (S)” value (pH 1) of the same compound?
Answer: Its value is 4 µg/mL (≈ 5.67 µM).
